Three molecules from article PMC11638965, “Leveraging Dual-Ligase Recruitment to Enhance Protein Degradation via a Heterotrivalent Proteolysis Targeting Chimera” (Journal of the American Chemical Society, 2024) can be followed below.

Several values for one entry are separate records, joined by “and”; a condition that tells them apart may be missing. Equal values may be shown once. Read-outs that look alike come from different tables or passages of the source.

One series deals with T1, BRD3 (Homo sapiens, UniProt Q15059).
T1 construct: HiBiT, is appended to the N-terminus of endogenous BRD2, BRD3, and BRD4; endogenous in cells
T1 sequence (Q15059 whole entry): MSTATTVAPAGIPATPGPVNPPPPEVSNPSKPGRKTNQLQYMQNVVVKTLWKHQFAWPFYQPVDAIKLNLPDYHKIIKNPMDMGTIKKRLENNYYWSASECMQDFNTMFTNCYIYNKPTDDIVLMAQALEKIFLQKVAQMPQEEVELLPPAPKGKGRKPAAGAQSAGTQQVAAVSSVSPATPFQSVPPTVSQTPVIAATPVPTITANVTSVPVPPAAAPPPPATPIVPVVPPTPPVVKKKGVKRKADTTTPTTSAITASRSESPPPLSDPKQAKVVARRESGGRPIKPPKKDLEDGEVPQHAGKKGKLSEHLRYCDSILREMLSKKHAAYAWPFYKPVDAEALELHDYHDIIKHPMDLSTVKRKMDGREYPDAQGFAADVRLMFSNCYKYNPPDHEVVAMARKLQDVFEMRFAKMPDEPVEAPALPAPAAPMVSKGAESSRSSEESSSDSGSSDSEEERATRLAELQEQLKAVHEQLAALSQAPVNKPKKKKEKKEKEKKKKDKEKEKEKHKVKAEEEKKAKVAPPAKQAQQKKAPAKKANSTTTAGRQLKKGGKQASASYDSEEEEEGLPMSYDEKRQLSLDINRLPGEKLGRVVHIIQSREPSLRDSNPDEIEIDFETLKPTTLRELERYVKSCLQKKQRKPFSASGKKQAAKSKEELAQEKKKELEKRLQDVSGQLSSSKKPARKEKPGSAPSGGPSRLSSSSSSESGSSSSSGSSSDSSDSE
The series is described as follows: Live cell kinetic HiBiT degradation assay, HiBiT-BRD3 HEK293 cells. As to conditions: for DC50: live cell kinetic degradation, read-out: Dmax 50 BRD3. It is filed as cell-based. The essentials: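 HEK293 cells with CRISPR-inserted N-terminal HiBiT on endogenous BRD2 or BRD3, stably expressing LgBiT, equilibrated 3 h with Endurazine at 37 °C, then treated with threefold PROTAC dilution series. Luminescence read every 7 min for 24 h, normalized to pre-read and DMSO; Dmax as lowest signal, rate constant by one-phase exponential decay, Dmax50 from Dmax-concentration fit.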

Another series deals with BRD4 (Homo sapiens, UniProt O60885). Description: Live cell kinetic HiBiT degradation assay, HiBiT-BRD4 HEK293 cells (parental, CRBN KO, VHL KO). As to conditions: for λmax BRD4 (degradation rate): HiBiT-BRD4 knock-in HEK293 cells. Format: cell-based. The essentials: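 Endogenous N-terminal HiBiT-BRD4 HEK293 cells stably expressing LgBiT (parental, CRBN KO, VHL KO) in CO2-independent medium with Endurazine, pre-equilibrated 3 h at 37 °C. Luminescence read every 7 min for 24 h after PROTAC addition (threefold series), normalized to pre-read and DMSO. Dmax = lowest reading; rate from one-phase decay; Dmax50 from Dmax-vs-concentration fit.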

The subject of a further series is RKO WT cells. The series is described as follows: cells. It is filed as cell-based, human. As to conditions: for EC50: Homo sapiens.
In a further series the test system is K562 cells. The series is described as follows: Cell viability assay (CellTiter-Glo). It is filed as cell-based, human. As to conditions: Homo sapiens; WT K562, 5.12 pM to 10 uM, n = 3 (Table S4).
The next series deals with KBM7 cells. Description: Cell viability assay (CellTiter-Glo). It is filed as cell-based, human. As to conditions: Homo sapiens, KBM-7; WT KBM7, 5.12 pM to 10 uM, n = 3 (Table S4).
Where [1] appears, read: HiBiT-BRD3 CRISPR knock-in HEK293 cells, 24 h.
The mark [2] stands for this setting: HiBiT-BRD3 knock-in HEK293 cells.
Setting [3] is: HiBiT-BRD4 CRISPR knock-in HEK293 cells, live cell kinetic degradation, 24 h, read-out: Dmax 50 BRD4.
Where [4] appears, read: WT RKO, 316 pM to 10 μM, n = 3 (Table S4), read-out: EC50 RKO.

`Cc1ncsc1-c1ccc(CNC(=O)[C@@H]2C[C@@H](O)CN2C(=O)[C@@H](NC(=O)COCC(C)(COCCOCCNc2cc3c(cc2F)C(=O)N(C2CCC(=O)NC2=O)C3=O)COCCOCCOCCOC(=O)C[C@@H]2N=C(c3ccc(Cl)cc3)c3c(sc(C)c3C)-n3c(C)nnc32)C(C)(C)C)cc1` (mixture of isomers) [AB3126 (29), (17S)-11-((2-(2-((2-(2,6-dioxopiperidin-3-yl)-6-fluoro-1,3-dioxoisoindolin-5-yl)amino)ethoxy)ethoxy)methyl)-17-((2S,4R)-4-hydroxy-2-((4-(4-methylthiazol-5-yl)benzyl)carbamoyl)pyrrolidine-1-carbonyl)-11,18,18-trimethyl-15-oxo-3,6,9,13-tetraoxa-16-azanonadecyl 2-((S)-4-(4-chlorophenyl)-2,3,9-trimethyl-6H-thieno[3,2-f][1,2,4]triazolo[4,3-a][1,4]diazepin-6-yl)acetate]: the DC50 on BRD3 (setting [1]) worked out at 1.9 nM. At BRD3 (setting [2]), the “λmax BRD3 (degradation rate)” value is 2.62 h⁻¹. Also, the EC50 at BRD4 (setting [3]) was 4 nM; with RKO WT cells (setting [4]), 195 nM; with K562 cells, 80.5 nM; in the series on KBM7 cells, 7.3 nM. The “λmax BRD4 (degradation rate)” value on BRD4 was found to be 1.69 h⁻¹.
In the case of `Cc1ncsc1-c1ccc([C@H](C)NC(=O)[C@@H]2C[C@@H](O)CN2C(=O)[C@@H](NC(=O)COCC(C)(COCCOCCOCCNc2cc3c(cc2F)C(=O)N(C2CCC(=O)NC2=O)C3=O)COCCOCCOCCOC(=O)C[C@@H]2N=C(c3ccc(Cl)cc3)c3c(sc(C)c3C)-n3c(C)nnc32)C(C)(C)C)cc1` (mixture of isomers) [AB3067 (27), (17S)-11-((2-(2-(2-((2-(2,6-dioxopiperidin-3-yl)-6-fluoro-1,3-dioxoisoindolin-5-yl)amino)ethoxy)ethoxy)ethoxy)methyl)-17-((2S,4R)-4-hydroxy-2-(((S)-1-(4-(4-methylthiazol-5-yl)phenyl)ethyl)carbamoyl)pyrrolidine-1-carbonyl)-11,18,18-trimethyl-15-oxo-3,6,9,13-tetraoxa-16-azanonadecyl 2-((S)-4-(4-chlorophenyl)-2,3,9-trimethyl-6H-thieno[3,2-f][1,2,4]triazolo[4,3-a][1,4]diazepin-6-yl)acetate], the DC50 at BRD3 (setting [1]) is < 0.43 nM; on BRD3 (setting [2]) it was 0.085 nM. In addition, on BRD3 (setting [2]), the “λmax BRD3 (degradation rate)” value worked out at 3.31 h⁻¹. Further, the “fold less Dmax 50 for BRD4 degradation in CRBN KO than in parent HiBiT-BRD4 cells” value on BRD4 (CRBN KO vs parental) is given as 60 fold. In addition, the EC50 at BRD4 (setting [3]) is 0.6 nM and 0.64 nM; at BRD4 (HiBiT-BRD4 HEK293 CRBN KO cells, 5 pM to 3 μM (Figure 9), read-out: Dmax 50 (HiBiT-BRD4: CRBN KO)), 38 nM; on BRD4 (HiBiT-BRD4 HEK293 VHL KO cells, 5 pM to 3 μM (Figure 9), read-out: Dmax 50 (HiBiT-BRD4: VHL KO)) it was 23 nM; in the series with RKO WT cells (72 h, 316 pM to 10 μM, 3 days, n = 3 (Figures 5 and 8C, Table S5), read-out: EC50 RKO WT) it was 111 nM; in the series with RKO WT cells (72 h, 500 pM to 10 μM, 3 days (Figure 10, Table S6), read-out: EC50 RKO WT), 73 nM; in the series on RKO WT cells (RKO WT, 316 pM to 10 μM, n = 6, combination: dBET6 and MZ1 each from 5 μM (Table S7), read-out: EC50 RKO), 49 nM. Besides, the EC50 in the series with RKO WT cells (setting [4]) came to 97.5 nM; with K562 cells, 62.1 nM; in the series on KBM7 cells, 6.9 nM. For the same molecule, the “λmax (HiBiT-BRD4: CRBN KO)” value at BRD4 (HiBiT-BRD4 HEK293 CRBN KO cells (Figure 9)) was 1.0 h⁻¹. In addition, on BRD4 (HiBiT-BRD4 HEK293 VHL KO cells (Figure 9)), the “λmax (HiBiT-BRD4: VHL KO)” value was 1.2 h⁻¹. Also, the “λmax (HiBiT-BRD4: Parental)” value on BRD4 (HiBiT-BRD4 HEK293 parental cells (Figure 9)) worked out at 2.3 h⁻¹. In addition, on BRD4, the “λmax BRD4 (degradation rate)” value is 2.68 h⁻¹. Further, the “fold less Dmax 50 for BRD4 degradation in VHL KO than in parent HiBiT-BRD4 cells” value at BRD4 (VHL KO vs parental) is 40 fold. For the same molecule, the “cytotoxicity compared with 1:1 mixture of dBET6 and MZ1 (in words)” value in the series on RKO WT cells (human, 3 days) is “more cytoxic than the 1:1 mixture of dBET6 and MZ1”.
`Cc1ncsc1-c1ccc(CNC(=O)[C@@H]2C[C@@H](O)CN2C(=O)[C@@H](NC(=O)COCC(C)(COCCOCCNc2cc3c(cc2F)C(=O)N(C2CCC(=O)NC2=O)C3=O)COCCOCCOC(=O)C[C@@H]2N=C(c3ccc(Cl)cc3)c3c(sc(C)c3C)-n3c(C)nnc32)C(C)(C)C)cc1` (mixture of isomers) [AB3125 (30), (14S)-8-((2-(2-((2-(2,6-dioxopiperidin-3-yl)-6-fluoro-1,3-dioxoisoindolin-5-yl)amino)ethoxy)ethoxy)methyl)-14-((2S,4R)-4-hydroxy-2-((4-(4-methylthiazol-5-yl)benzyl)carbamoyl)pyrrolidine-1-carbonyl)-8,15,15-trimethyl-12-oxo-3,6,10-trioxa-13-azahexadecyl 2-((S)-4-(4-chlorophenyl)-2,3,9-trimethyl-6H-thieno[3,2-f][1,2,4]triazolo[4,3-a][1,4]diazepin-6-yl)acetate]: the DC50 on BRD3 (setting [1]) came to 3 nM. Also, the “λmax BRD3 (degradation rate)” value on BRD3 (setting [2]) is 2.60 h⁻¹ and 2.6 h⁻¹. Besides, the “fold increase in degradation of BRD4 (Dmax 50) vs matched pair” value on BRD4 (23 vs 1, 26 vs 23, 30 vs 2, HiBiT-BRD4 HEK293 cells) was 6.7 fold. The EC50 at BRD4 (setting [3]) came to 8.2 nM; in the series with RKO WT cells (setting [4]), 369 nM; in the series with K562 cells, 242 nM; with KBM7 cells, 34.1 nM. Further, on BRD4, the “λmax BRD4 (degradation rate)” value amounted to 1.76 h⁻¹.
